From the CheMixHub viscosity set

Test: xn = mol fraction of the nth substance listed

C=COCCCC + CCOC(=O)c1ccccc1
viscosity [mPa·s], 101 kPa
Settings	x2 = 0.0939	x2 = 0.1857	x2 = 0.2804	x2 = 0.3768	x2 = 0.4748	x2 = 0.557	x2 = 0.6781	x2 = 0.7812	x2 = 0.8898
303.15 K	0.438	0.499	0.573	0.663	0.769	0.877	1.061	1.25	1.482
308.15 K	0.425	0.482	0.55	0.633	0.729	0.827	0.995	1.163	1.372
313.15 K	0.404	0.458	0.519	0.592	0.678	0.762	0.907	1.054	1.231

CCI + CCOC(C)=O
Settings	viscosity [mPa·s]
298.15 K, 101 kPa, x2 = 0.7859	0.462

O=[N+]([O-])c1ccccc1 + CCOC(C)=O
viscosity [mPa·s], 101 kPa
Settings	298.15 K	308.15 K
x1 = 0.1753	0.582	–
x1 = 0.4777	0.889	–
x1 = 0.6887	1.204	–
x2 = 0.0466	1.71	1.482
x2 = 0.1486	1.535	1.346
x2 = 0.2512	1.364	1.208
x2 = 0.3117	1.204	–
x2 = 0.3496	1.206	1.077
x2 = 0.4483	1.057	0.95
x2 = 0.4935	0.992	0.893
x2 = 0.5223	0.889	–
x2 = 0.5538	0.909	0.821
x2 = 0.6497	0.785	0.711
x2 = 0.7513	0.666	0.604
x2 = 0.8247	0.582	–
x2 = 0.8488	0.564	0.512
x2 = 0.9411	0.478	0.433

ClC(Cl)=C(Cl)Cl + CCOCCO
viscosity [mPa·s], 101.33 kPa
Settings	x1 = 0.1174	x1 = 0.2104	x1 = 0.323	x1 = 0.4392	x1 = 0.5276	x1 = 0.6168	x1 = 0.7085	x1 = 0.8053	x1 = 0.9054
303.15 K	1.513	1.396	1.272	1.149	1.065	0.992	0.926	0.869	0.822
313.15 K	1.201	1.132	1.049	0.968	0.91	0.857	0.809	0.769	0.739

CCCCCO + CN(C)C=O
298.15 K, 101 kPa
Settings	viscosity [mPa·s]
x2 = 0.4261	1.395
x2 = 0.5467	1.568

O=[N+]([O-])c1ccccc1 + CN(C)C=O
viscosity [mPa·s]
Settings	298.15 K	303.15 K	308.15 K	313.15 K
101.3 kPa, x1 = 0.0953	0.926	0.8671	0.8133	0.7628
101.3 kPa, x1 = 0.1999	1.026	0.9585	0.8949	0.8362
101.3 kPa, x1 = 0.3027	1.129	1.053	0.9803	0.9134
101.3 kPa, x1 = 0.4044	1.231	1.146	1.075	0.9878
101.3 kPa, x1 = 0.504	1.338	1.246	1.154	1.07
101.3 kPa, x1 = 0.6035	1.441	1.332	1.232	1.14
101.3 kPa, x1 = 0.7034	1.543	1.423	1.313	1.214
101.3 kPa, x1 = 0.8011	1.638	1.505	1.389	1.28
101.3 kPa, x1 = 0.8937	1.74	1.595	1.469	1.351
101.33 kPa, x2 = 0.1017	–	1.524	–	1.307
101.33 kPa, x2 = 0.2145	–	1.416	–	1.22
101.33 kPa, x2 = 0.3053	–	1.331	–	–
101.33 kPa, x2 = 0.3083	–	–	–	1.157
101.33 kPa, x2 = 0.404	–	1.246	–	1.091
101.33 kPa, x2 = 0.5021	–	1.165	–	1.023
101.33 kPa, x2 = 0.6003	–	1.085	–	0.952
101.33 kPa, x2 = 0.6968	–	1.002	–	0.884
101.33 kPa, x2 = 0.7975	–	0.917	–	0.809
101.33 kPa, x2 = 0.8975	–	0.826	–	0.738

c1ccccc1 + CN(C)C=O
298.15 K
Settings	viscosity [mPa·s]
101 kPa, x1 = 0.0257	0.799
101 kPa, x1 = 0.0509	0.795
101 kPa, x1 = 0.1031	0.783
101 kPa, x1 = 0.1578	0.765
101 kPa, x1 = 0.2083	0.759
101 kPa, x1 = 0.2579	0.75
101 kPa, x1 = 0.3129	0.7455
101 kPa, x1 = 0.3651	0.739
101 kPa, x1 = 0.4202	0.725
101 kPa, x1 = 0.469	0.711
101 kPa, x1 = 0.5167	0.7175
101 kPa, x1 = 0.5779	0.7
101 kPa, x1 = 0.6247	0.697
101 kPa, x1 = 0.6758	0.6825
101 kPa, x1 = 0.7167	0.671
101 kPa, x1 = 0.7855	0.653
101 kPa, x1 = 0.8262	0.643
101 kPa, x1 = 0.8944	0.6255
101 kPa, x1 = 0.9372	0.615
101 kPa, x1 = 0.9409	0.614
101 kPa, x1 = 0.9761	0.605
101.33 kPa, x1 = 0.1225	0.7645
101.33 kPa, x1 = 0.2494	0.7375
101.33 kPa, x1 = 0.4823	0.6925
101.33 kPa, x1 = 0.6236	0.6672
101.33 kPa, x1 = 0.7499	0.6477
101.33 kPa, x1 = 0.8733	0.6245

CCCCCCC + CO
298.15 K
Settings	viscosity [mPa·s]
101 kPa, x1 = 0.01	0.535
101 kPa, x1 = 0.02	0.5317
101 kPa, x1 = 0.03	0.5293
101 kPa, x1 = 0.04	0.5277
101 kPa, x1 = 0.05	0.5257
101 kPa, x1 = 0.06	0.5246
101 kPa, x1 = 0.08	0.5247
101 kPa, x1 = 0.09	0.5214
101.33 kPa, x2 = 0.0171	0.401
101.33 kPa, x2 = 0.0593	0.401
101.33 kPa, x2 = 0.0865	0.404
101.33 kPa, x2 = 0.1148	0.403
101.33 kPa, x2 = 0.9043	0.548
101.33 kPa, x2 = 0.9241	0.549
101.33 kPa, x2 = 0.9474	0.552
101.33 kPa, x2 = 0.9653	0.554
101.33 kPa, x2 = 0.9765	0.553

CCCCCCCC + CO
298.15 K, 101.33 kPa
Settings	viscosity [mPa·s]
x1 = 0.0147	0.553
x2 = 0.0367	0.536
x2 = 0.0682	0.547
x2 = 0.0725	0.548
x2 = 0.0933	0.555
x2 = 0.1159	0.563
x2 = 0.9531	0.556
x2 = 0.9687	0.554

CCCCCO + CO
298.15 K, 101.33 kPa
Settings	viscosity [mPa·s]
x2 = 0.1748	2.71
x2 = 0.2198	2.528
x2 = 0.327	2.143
x2 = 0.4302	1.813
x2 = 0.5186	1.57
x2 = 0.5951	1.372
x2 = 0.652	1.236
x2 = 0.7911	0.932
x2 = 0.8761	0.77

ClC(Cl)=C(Cl)Cl + CO
viscosity [mPa·s], 101.33 kPa
Settings	x2 = 0.1436	x2 = 0.2974	x2 = 0.456	x2 = 0.6044	x2 = 0.7514	x2 = 0.9006
293.15 K	0.762	0.721	0.683	0.639	0.585	0.535
303.15 K	0.705	0.667	0.63	0.59	0.552	0.512
313.15 K	0.6515	0.622	0.592	0.561	0.529	0.497
